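96-well plates; 48 h exposure; 5 concentrations. Endpoints by linear interpolation between flanking doses. Not reached: highest tested concentration assigned. GI50 = concentration required for 50% inhibition of growth. Definition used: TGI = concentration required for complete inhibition of growth.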
How the values were obtained:
Experiment in all cases: DTP human tumour cell line panel, 48 h
NCI-H522 lung = tested on: NCI-H522 lung
HL-60(TB) leukemia = tested on: HL-60(TB) leukemia
SK-OV-3 ovarian = tested on: SK-OV-3 ovarian
SF-268 CNS = tested on: SF-268 CNS
SK-MEL-28 melanoma = tested on: SK-MEL-28 melanoma
NCI-H460 lung = tested on: NCI-H460 lung
HCC-2998 colon = tested on: HCC-2998 colon
A498 renal = tested on: A498 renal
LOX IMVI melanoma = tested on: LOX IMVI melanoma
SK-MEL-2 melanoma = tested on: SK-MEL-2 melanoma

| Compound | GI50 (NCI-H522 lung) | TGI (NCI-H522 lung) | GI50 (HL-60(TB) leukemia) | TGI (HL-60(TB) leukemia) | GI50 (SK-OV-3 ovarian) | TGI (SK-OV-3 ovarian) | GI50 (SF-268 CNS) | TGI (SF-268 CNS) | GI50 (SK-MEL-28 melanoma) | TGI (SK-MEL-28 melanoma) | GI50 (NCI-H460 lung) | TGI (NCI-H460 lung) | GI50 (HCC-2998 colon) | TGI (HCC-2998 colon) | GI50 (A498 renal) | TGI (A498 renal) | GI50 (LOX IMVI melanoma) | TGI (LOX IMVI melanoma) | TGI (SK-MEL-2 melanoma) | GI50 (SK-MEL-2 melanoma) |
| --- | --- | --- | --- | --- | --- | --- | --- | --- | --- | --- | --- | --- | --- | --- | --- | --- | --- | --- | --- | --- |
| COc1cc(OC)c2c(c1Cl)O[C@]1(C2=O)C(OCc2ccccc2)=CC(=O)C[C@H]1C | 0.694 µM | 4.66 µM | 0.531 µM | 3.52 µM | 1.29 µM | 7.75 µM | 1.82 µM | 53.8 µM | 1.85 µM | 24.8 µM | 0.401 µM | 12.6 µM | 1.49 µM | 7.03 µM | 0.413 µM | 5.58 µM | – | – | – | – |
| C/C(=N\NS(=O)(=O)c1ccccc1)c1ccc[n+]([O-])n1 | – | 79 µM | – | 69.9 µM | – | > 100 µM | – | > 100 µM | – | > 100 µM | – | > 100 µM | – | > 100 µM | – | > 100 µM | – | – | – | – |
| O=S1(=O)C=C(c2ccccc2)C(c2ccccc2)=C1 | – | – | 2.14 µM | 5.21 µM | 7.81 µM | 20.2 µM | 1.49 µM | 3.38 µM | 1.77 µM | 3.18 µM | 1.88 µM | 4.23 µM | 1.71 µM | 3.16 µM | 1.47 µM | 3.25 µM | 1.69 µM | 3.05 µM | – | – |
| O=C(OCc1ccccc1)c1ccccc1-c1c2ccc(=O)cc-2oc2cc(OCc3ccccc3)ccc12 | – | – | – | 22.8 µM | – | – | – | > 100 µM | – | 61 µM | – | 35.8 µM | – | 56 µM | – | 88.2 µM | – | 21.2 µM | 46.7 µM | – |
| Cc1c(C(=O)Nc2ccc(Cl)cc2)nc(N)nc1-c1cccc(Cl)c1 | – | – | – | > 100 µM | – | > 100 µM | – | > 100 µM | – | > 100 µM | – | > 100 µM | – | > 100 µM | – | – | – | – | – | – |
| CC(=O)N1CCN(C=S)CC1 | – | > 100 µM | – | > 100 µM | – | > 100 µM | – | > 100 µM | – | > 100 µM | – | > 100 µM | – | > 100 µM | – | > 100 µM | – | > 100 µM | – | – |
| COC(=O)C1=C(O)C(C(=O)OC)[C@@]2(O)[C@@H](C(=O)OC)C(c3ccccc3Cl)C[C@@H]1[C@@H]2C(=O)OC (some centres undefined) | 3.16 µM | 12.8 µM | – | – | 23.6 µM | 63.4 µM | 14.5 µM | 65.3 µM | 7.16 µM | 30.4 µM | 10.7 µM | > 100 µM | 14 µM | 28.6 µM | 14.2 µM | 32.4 µM | 4.43 µM | 17 µM | 17.7 µM | 3.62 µM |
| N#CC(CC(=O)O)=C(c1ccccc1)c1ccccc1 | – | > 100 µM | – | – | – | > 100 µM | – | > 100 µM | – | > 100 µM | – | > 100 µM | – | > 100 µM | – | > 100 µM | – | > 100 µM | > 100 µM | – |
| CC(=O)Nc1cc(CN2CCCCC2)c(O)c2ncccc12 | – | > 100 µM | – | 36.8 µM | – | > 100 µM | – | 79.2 µM | – | > 100 µM | – | 36.9 µM | – | – | – | > 100 µM | – | 84.8 µM | 23 µM | – |
| Nc1ncnc2c1ncn2COC/C=C/I | – | > 100 µM | – | – | – | > 100 µM | – | > 100 µM | – | > 100 µM | – | > 100 µM | – | > 100 µM | – | > 100 µM | – | > 100 µM | > 100 µM | – |
| C=C1CC(CC(=O)C(C)CC2CC(=C)C(=O)O2)OC1=O (centres undefined) | – | – | – | 33.6 µM | – | > 100 µM | – | 48.6 µM | – | 30.4 µM | – | > 100 µM | – | > 100 µM | – | > 100 µM | – | 29.2 µM | 25.3 µM | – |
| COc1ccc2c(c1)NC(=O)CN2c1nc(C)nc2ccccc12 | – | – | 0.000361 µM | 0.00151 µM | 0.000409 µM | 7.19 µM | 0.000788 µM | > 100 µM | – | – | 0.000397 µM | > 100 µM | 0.000371 µM | 34.2 µM | 0.000376 µM | – | 0.000526 µM | > 100 µM | > 100 µM | – |
| CCCCCC/C(CC(=O)CCC(=O)NCCc1ccccc1)=N\NC(=O)c1ccc2ccccc2c1O | – | – | – | 33.7 µM | – | – | – | > 100 µM | – | > 100 µM | – | > 100 µM | – | > 100 µM | – | – | – | 48.5 µM | 53.7 µM | – |
| N#CC1([N+](=O)[O-])C=C1c1ccccc1 (centres undefined) | – | 56.6 µM | – | 46.3 µM | – | > 100 µM | – | > 100 µM | – | – | – | > 100 µM | – | – | – | – | – | > 100 µM | > 100 µM | – |
| Nc1cc(N)c2nc(-c3ccccc3)c(Oc3ccc(Cl)c(Cl)c3)nc2c1 | 8.34 µM | 33.7 µM | 5.15 µM | > 100 µM | 23.9 µM | 65.9 µM | 17.1 µM | 52.5 µM | 21.5 µM | 64.2 µM | 18.4 µM | 71.4 µM | – | – | 0.442 µM | 12.3 µM | 16.1 µM | 34 µM | 23.3 µM | 5.63 µM |
| CC1(C)N=C(N)N=C(N)N1c1ccc(CCC(=O)Nc2cccc(S(=O)(=O)F)c2)cc1 | – | – | 2.86 µM | > 100 µM | > 100 µM | > 100 µM | 4.74 µM | > 100 µM | 81.1 µM | > 100 µM | 3.04 µM | > 100 µM | – | – | 20.1 µM | > 100 µM | 3.54 µM | > 100 µM | > 100 µM | 10.8 µM |
| NC(C(=O)O)c1ccc(C(=O)O)cc1 (centres undefined) | – | > 100 µM | – | > 100 µM | – | > 100 µM | – | > 100 µM | – | > 100 µM | – | > 100 µM | – | > 100 µM | – | – | – | > 100 µM | > 100 µM | – |
| CC(=O)CC(=O)ON(C)C(=O)Cc1ccccc1 | – | > 100 µM | – | > 100 µM | – | > 100 µM | – | > 100 µM | – | > 100 µM | – | > 100 µM | – | > 100 µM | – | – | – | > 100 µM | – | – |
| C[C@H](CCCOS(C)(=O)=O)[C@H]1CC[C@H]2[C@@H]3CC[C@@H]4C[C@H](OS(C)(=O)=O)CC[C@]4(C)[C@H]3CC[C@]12C | 398 µM | 961 µM | – | – | > 2500 µM | – | 590 µM | – | 1060 µM | > 2500 µM | 597 µM | 2080 µM | – | – | 664 µM | – | 483 µM | 1270 µM | > 2500 µM | 989 µM |
| CCN(CC)c1ccc(N=C2C=CC(=C(C#N)C#N)c3ccccc32)c(C)c1 | – | – | – | 3.61 µM | – | 24 µM | – | – | – | 4.22 µM | – | 8.41 µM | – | – | – | – | – | 4.75 µM | 5.48 µM | – |
| NCCNc1ncnc2ccc(Cl)cc12 | – | > 100 µM | – | > 100 µM | – | > 100 µM | – | > 100 µM | – | > 100 µM | – | > 100 µM | – | – | – | > 100 µM | – | > 100 µM | > 100 µM | – |

Source: PubChem BioAssay (NCI)
